# Assay results as given in patent US20240238242A1, “EGCG buccal tablet and use thereof” (priority 2023, published 2024).
# Read-outs that look alike come from different tables or passages of the source.
# Test system: Novel enterovirus D68 (EV-D68)
# Type: cell-based
# Conditions: for CPE test per cell well: first experiment; for CPE test (virus replication in cell wells) / CPE test (virus replication in the cell wells): wells 1-10; for average inactivation efficiency against virus: 0.2 mM EGCG, EV-D68 virus, three experiments
structure (smiles),measurement,setting,value
"O=C(O[C@@H]1Cc2c(O)cc(O)cc2O[C@@H]1c1cc(O)c(O)c(O)c1)c1cc(O)c(O)c(O)c1 [EGCG, Epigallocatechin gallate]",CPE test per cell well,"0.2 mM EGCG + EV-D68 virus, 1 minute, dilution factor 10^1, wells 1-10",+
same,CPE test per cell well,"0.2 mM EGCG + EV-D68 virus, 1 minute, dilution factor 10^2, wells 1-10",+
same,CPE test per cell well,"0.2 mM EGCG + EV-D68 virus, 1 minute, dilution factor 10^3, wells 1-10",+
same,CPE test per cell well,"0.2 mM EGCG + EV-D68 virus, 1 minute, dilution factor 10^4, wells 1-10",+
same,CPE test per cell well,"0.2 mM EGCG + EV-D68 virus, 1 minute, dilution factor 10^5, wells 1-10",+
same,CPE test per cell well,"0.2 mM EGCG + EV-D68 virus, 1 minute, dilution factor 10^6, wells 1-10",− and +
same,CPE test per cell well,"0.2 mM EGCG + EV-D68 virus, 1 minute, dilution factor 10^7, wells 1-10",− and +
same,CPE test per cell well,"0.2 mM EGCG + EV-D68 virus, 1 minute, dilution factor 10^8, wells 1-10",−
same,CPE test (virus replication in cell wells),"0.2 mM EGCG + EV-D68 virus, co-incubated 5 minute, third experiment, dilution factor 10^1",+
same,CPE test (virus replication in cell wells),"0.2 mM EGCG + EV-D68 virus, co-incubated 5 minute, third experiment, dilution factor 10^2",+
same,CPE test (virus replication in cell wells),"0.2 mM EGCG + EV-D68 virus, co-incubated 5 minute, third experiment, dilution factor 10^3",+
same,CPE test (virus replication in cell wells),"0.2 mM EGCG + EV-D68 virus, co-incubated 5 minute, third experiment, dilution factor 10^4",+
same,CPE test (virus replication in cell wells),"0.2 mM EGCG + EV-D68 virus, co-incubated 5 minute, third experiment, dilution factor 10^5",+
same,CPE test (virus replication in cell wells),"0.2 mM EGCG + EV-D68 virus, co-incubated 5 minute, third experiment, dilution factor 10^6",+ and −
same,CPE test (virus replication in cell wells),"0.2 mM EGCG + EV-D68 virus, co-incubated 5 minute, third experiment, dilution factor 10^7",−
same,CPE test (virus replication in cell wells),"0.2 mM EGCG + EV-D68 virus, co-incubated 5 minute, third experiment, dilution factor 10^8",−
same,CPE test (virus replication in cell wells),"0.2 mM EGCG + virus, 1 minute, dilution factor 10^1, second experiment",+
same,CPE test (virus replication in cell wells),"0.2 mM EGCG + virus, 1 minute, dilution factor 10^1, third experiment",+
same,CPE test (virus replication in cell wells),"0.2 mM EGCG + virus, 1 minute, dilution factor 10^2, second experiment",+
same,CPE test (virus replication in cell wells),"0.2 mM EGCG + virus, 1 minute, dilution factor 10^2, third experiment",+
same,CPE test (virus replication in cell wells),"0.2 mM EGCG + virus, 1 minute, dilution factor 10^3, second experiment",+
same,CPE test (virus replication in cell wells),"0.2 mM EGCG + virus, 1 minute, dilution factor 10^3, third experiment",+
same,CPE test (virus replication in cell wells),"0.2 mM EGCG + virus, 1 minute, dilution factor 10^4, second experiment",+
same,CPE test (virus replication in cell wells),"0.2 mM EGCG + virus, 1 minute, dilution factor 10^4, third experiment",+
same,CPE test (virus replication in cell wells),"0.2 mM EGCG + virus, 1 minute, dilution factor 10^5, second experiment",+
same,CPE test (virus replication in cell wells),"0.2 mM EGCG + virus, 1 minute, dilution factor 10^5, third experiment",+
same,CPE test (virus replication in cell wells),"0.2 mM EGCG + virus, 1 minute, dilution factor 10^6, second experiment",− and +
same,CPE test (virus replication in cell wells),"0.2 mM EGCG + virus, 1 minute, dilution factor 10^6, third experiment",− and +
same,CPE test (virus replication in cell wells),"0.2 mM EGCG + virus, 1 minute, dilution factor 10^7, second experiment",− and +
same,CPE test (virus replication in cell wells),"0.2 mM EGCG + virus, 1 minute, dilution factor 10^7, third experiment",− and +
same,CPE test (virus replication in cell wells),"0.2 mM EGCG + virus, 1 minute, dilution factor 10^8, second experiment",−
same,CPE test (virus replication in cell wells),"0.2 mM EGCG + virus, 1 minute, dilution factor 10^8, third experiment",−
same,CPE test (virus replication in the cell wells),"0.2 mM EGCG + virus, co-incubated 5 minute, dilution factor 10^1, first experiment",+
same,CPE test (virus replication in the cell wells),"0.2 mM EGCG + virus, co-incubated 5 minute, dilution factor 10^1, second experiment",+
same,CPE test (virus replication in the cell wells),"0.2 mM EGCG + virus, co-incubated 5 minute, dilution factor 10^2, first experiment",+
same,CPE test (virus replication in the cell wells),"0.2 mM EGCG + virus, co-incubated 5 minute, dilution factor 10^2, second experiment",+
same,CPE test (virus replication in the cell wells),"0.2 mM EGCG + virus, co-incubated 5 minute, dilution factor 10^3, first experiment",+
same,CPE test (virus replication in the cell wells),"0.2 mM EGCG + virus, co-incubated 5 minute, dilution factor 10^3, second experiment",+
same,CPE test (virus replication in the cell wells),"0.2 mM EGCG + virus, co-incubated 5 minute, dilution factor 10^4, first experiment",+
same,CPE test (virus replication in the cell wells),"0.2 mM EGCG + virus, co-incubated 5 minute, dilution factor 10^4, second experiment",+
same,CPE test (virus replication in the cell wells),"0.2 mM EGCG + virus, co-incubated 5 minute, dilution factor 10^5, first experiment",+
same,CPE test (virus replication in the cell wells),"0.2 mM EGCG + virus, co-incubated 5 minute, dilution factor 10^5, second experiment",+
same,CPE test (virus replication in the cell wells),"0.2 mM EGCG + virus, co-incubated 5 minute, dilution factor 10^6, first experiment",− and +
same,CPE test (virus replication in the cell wells),"0.2 mM EGCG + virus, co-incubated 5 minute, dilution factor 10^6, second experiment",+ and −
same,CPE test (virus replication in the cell wells),"0.2 mM EGCG + virus, co-incubated 5 minute, dilution factor 10^7, first experiment",−
same,CPE test (virus replication in the cell wells),"0.2 mM EGCG + virus, co-incubated 5 minute, dilution factor 10^7, second experiment",−
same,CPE test (virus replication in the cell wells),"0.2 mM EGCG + virus, co-incubated 5 minute, dilution factor 10^8, first experiment",−
same,CPE test (virus replication in the cell wells),"0.2 mM EGCG + virus, co-incubated 5 minute, dilution factor 10^8, second experiment",−
same,average inactivation efficiency against virus,1 minute,12.30%
same,average inactivation efficiency against virus,5 minutes,35.78%
same,CPE test per cell well,"1 mM EGCG + EV-D68 virus, 1 minute, dilution factor 10^1, wells 1-10",+
same,CPE test per cell well,"1 mM EGCG + EV-D68 virus, 1 minute, dilution factor 10^2, wells 1-10",+
same,CPE test per cell well,"1 mM EGCG + EV-D68 virus, 1 minute, dilution factor 10^3, wells 1-10",+
same,CPE test per cell well,"1 mM EGCG + EV-D68 virus, 1 minute, dilution factor 10^4, wells 1-10",+
same,CPE test per cell well,"1 mM EGCG + EV-D68 virus, 1 minute, dilution factor 10^5, wells 1-10",+
same,CPE test per cell well,"1 mM EGCG + EV-D68 virus, 1 minute, dilution factor 10^6, wells 1-10",+ and −
same,CPE test per cell well,"1 mM EGCG + EV-D68 virus, 1 minute, dilution factor 10^7, wells 1-10",−
same,CPE test per cell well,"1 mM EGCG + EV-D68 virus, 1 minute, dilution factor 10^8, wells 1-10",−
same,CPE test (virus replication in cell wells),"1 mM EGCG + EV-D68 virus, co-incubated 5 minute, third experiment, dilution factor 10^1",+
same,CPE test (virus replication in cell wells),"1 mM EGCG + EV-D68 virus, co-incubated 5 minute, third experiment, dilution factor 10^2",+
same,CPE test (virus replication in cell wells),"1 mM EGCG + EV-D68 virus, co-incubated 5 minute, third experiment, dilution factor 10^3",+
same,CPE test (virus replication in cell wells),"1 mM EGCG + EV-D68 virus, co-incubated 5 minute, third experiment, dilution factor 10^4",+
same,CPE test (virus replication in cell wells),"1 mM EGCG + EV-D68 virus, co-incubated 5 minute, third experiment, dilution factor 10^5",+
same,CPE test (virus replication in cell wells),"1 mM EGCG + EV-D68 virus, co-incubated 5 minute, third experiment, dilution factor 10^6",+ and −
same,CPE test (virus replication in cell wells),"1 mM EGCG + EV-D68 virus, co-incubated 5 minute, third experiment, dilution factor 10^7",−
same,CPE test (virus replication in cell wells),"1 mM EGCG + EV-D68 virus, co-incubated 5 minute, third experiment, dilution factor 10^8",−
same,CPE test (virus replication in cell wells),"1 mM EGCG + virus, 1 minute, dilution factor 10^1, second experiment",+
same,CPE test (virus replication in cell wells),"1 mM EGCG + virus, 1 minute, dilution factor 10^1, third experiment",+
same,CPE test (virus replication in cell wells),"1 mM EGCG + virus, 1 minute, dilution factor 10^2, second experiment",+
same,CPE test (virus replication in cell wells),"1 mM EGCG + virus, 1 minute, dilution factor 10^2, third experiment",+
same,CPE test (virus replication in cell wells),"1 mM EGCG + virus, 1 minute, dilution factor 10^3, second experiment",+
same,CPE test (virus replication in cell wells),"1 mM EGCG + virus, 1 minute, dilution factor 10^3, third experiment",+
same,CPE test (virus replication in cell wells),"1 mM EGCG + virus, 1 minute, dilution factor 10^4, second experiment",+
same,CPE test (virus replication in cell wells),"1 mM EGCG + virus, 1 minute, dilution factor 10^4, third experiment",+
